In general, IC50 refers to the concentration that inhibits the measured activity by half. Low values mean greater potency in that assay, high ones weaker potency in that assay.

For this assay, the target named is Presenilin-1 (Homo sapiens, UniProt P49768). Kind of assay: Inhibition of gamma secretase (unknown origin).

Take `CC(C)[C@H](O)C(=O)N[C@@H](C)C(=O)NC1C(=O)N(C)CCc2ccccc21` (stereo partly drawn) [(2S)-2-hydroxy-3-methyl-N-[(1S)-1-{[(1S)-3-methyl-2-oxo-2,3,4,5-tetrahydro-1H-3-benzazepin-1-yl]carbamoyl}ethyl]butanamide]: half-maximal inhibition (IC50) was put at 11 nM.

These data come from BindingDB's records for doi:10.1021/acs.jmedchem.5b01516 (Centre Hospitalier Universitaire Vaudois (Chuv), 2016).
